The CheMixHub viscosity set

Test: xn = mol fraction of the nth substance listed

[Cl-].[Cl-].[Cu+2] + O
viscosity [mPa·s]
Details	x1 = 0.000905	x1 = 0.00112	x1 = 0.002247	x1 = 0.002718	x1 = 0.004484	x1 = 0.00453	x1 = 0.006344	x1 = 0.008159	x1 = 0.008927	x1 = 0.0177
308.15 K, 101.3 kPa	–	0.739	0.7708	–	0.8088	–	–	–	0.879	0.9692
308.15 K, 101.33 kPa	0.7395	–	–	0.7712	–	0.8092	0.8409	0.879	–	–
313.15 K, 101.3 kPa	–	0.6675	0.697	–	0.7375	–	–	–	0.794	0.8595
313.15 K, 101.33 kPa	0.668	–	–	0.6975	–	0.738	0.762	0.7945	–	–
323.15 K, 101.3 kPa	–	0.577	0.601	–	0.637	–	–	–	0.6967	0.7595
323.15 K, 101.33 kPa	0.5775	–	–	0.6015	–	0.6375	0.6685	0.6972	–	–

ClC(Cl)(Cl)Cl + O=C1CCCCC1
298.15 K, 101 kPa
Details	viscosity [mPa·s]
x2 = 0.0951	1.017
x2 = 0.2086	1.109
x2 = 0.3074	1.193
x2 = 0.4109	1.289
x2 = 0.5072	1.381
x2 = 0.6004	1.476
x2 = 0.7013	1.577
x2 = 0.8072	1.669
x2 = 0.9023	1.754

Cc1ccccc1C(=O)O + O=C1CCCCCN1
101 kPa, x2 = 0.67
Details	viscosity [mPa·s]
303.2 K	108.3
313.1 K	58.33
323.1 K	34.26

O=C1CCCCCN1 + O=C(O)c1ccccc1
101 kPa, x1 = 0.5
Details	viscosity [mPa·s]
303.2 K	104.2
313.1 K	48.15
323.1 K	27.31

CCCOC(C)=O + O=S1(=O)CCCC1
101 kPa
Details	viscosity [mPa·s]
303.15 K, x1 = 0.0177	9.305
308.15 K, x2 = 0.6489	2.375
313.15 K, x2 = 0.7639	3.185

ClC(Cl)(Cl)Cl + O=S1(=O)CCCC1
viscosity [mPa·s], 101.33 kPa
Details	303.15 K	313.15 K	323.15 K
x2 = 0.066	1.002	0.8675	0.7607
x2 = 0.1374	1.243	1.062	0.9177
x2 = 0.2048	1.532	1.286	1.098
x2 = 0.3138	2.043	1.691	1.425
x2 = 0.3838	2.392	1.974	1.658
x2 = 0.4188	2.589	2.133	1.79
x2 = 0.4879	3.046	2.498	2.082
x2 = 0.5667	3.682	2.982	2.47
x2 = 0.6334	4.338	3.481	2.855
x2 = 0.705	5.162	4.107	3.348
x2 = 0.7743	6.124	4.817	3.9
x2 = 0.8473	7.286	5.711	4.571
x2 = 0.8955	8.168	6.367	5.053

ClC(Cl)(Cl)Cl + O=[N+]([O-])c1ccccc1
101 kPa
Details	viscosity [mPa·s]
298.15 K, x1 = 0.17	1.613
298.15 K, x1 = 0.35	1.411
298.15 K, x1 = 0.55	1.224
298.15 K, x1 = 0.76	1.099
303.15 K, x2 = 0.0951	0.8421
303.15 K, x2 = 0.1913	0.8672
303.15 K, x2 = 0.2891	0.8934
303.15 K, x2 = 0.3875	0.9219
303.15 K, x2 = 0.4865	0.9908
303.15 K, x2 = 0.5871	1.059
303.15 K, x2 = 0.6886	1.159
303.15 K, x2 = 0.7915	1.25
303.15 K, x2 = 0.8947	1.436
